Experimental data reported in publication PMC9631757 (2022).

System: CBZ aptamer (DNA, aptamer) CGAGGCTCTCGGGACGACGGGGCACGGGCCTCTGGGTCGGCATGGCCCGTCGTCCCGCCTTTAGGATTTACAG
Details: upper bound only; assay and buffer not stated

NC(=O)N1c2ccccc2C=Cc2ccccc21
Kd: < 12 nM
